Assays:
Assay type in all cases: in vivo
Solanum nigrum (SOLNI) [1] = assay: Post-emergence glasshouse herbicide test; details: post-emergence (sprayed after 8 days cultivation), 1000 g/h, evaluated after 13 days, five point scale
Method: (§1) Seeds of a variety of test species are sown in standard soil in pots (Lolium perenne (LOLPE), Solanum nigrum (SOLNI), Amaranthus retoflexus (AMARE), Setaria faberi (SETFA), Echinochloa crus-galli (ECHCG), Ipomoea hederacea (IPOHE)). After cultivation for one day (pre-emergence) or after 8 days cultivation (post-emergence) under controlled conditions in a glasshouse (at 24/16° C., day/night; 14 hours light; 65% humidity), the plants are sprayed with an aqueous spray solution derived from the formulation of the technical active ingredient in acetone/water (50:50) solution containing 0.5% Tween 20 (polyoxyethelyene sorbitan monolaurate, CAS RN 9005-64-5). Compounds are applied at 1000 g/h. The test plants are then grown in a glasshouse under controlled conditions in a glasshouse (at 24/16° C., day/night; 14 hours light; 65% humidity) and watered twice daily. After 13 days for pre and post-emergence, the test is evaluated for the percentage damage caused to the plant. The biological activities are shown in the following table on a five point scale (5=80-100%; 4=60-79%; 3=40-59%; 2=20-39%; 1=0-19%).

[2] = test system: Ipomoea hederacea (IPOHE); assay: Post-emergence glasshouse herbicide test; details: post-emergence (sprayed after 8 days cultivation), 1000 g/h, evaluated after 13 days, five point scale
Method: as §1

[3] = test system: Amaranthus retoflexus (AMARE); assay: Post-emergence glasshouse herbicide test; details: post-emergence (sprayed after 8 days cultivation), 1000 g/h, evaluated after 13 days, five point scale
Method: as §1

Setaria faberi (SETFA) [4] = assay: Post-emergence glasshouse herbicide test; details: post-emergence (sprayed after 8 days cultivation), 1000 g/h, evaluated after 13 days, five point scale
Method: as §1

Lolium perenne (LOLPE) [5] = assay: Post-emergence glasshouse herbicide test; details: post-emergence (sprayed after 8 days cultivation), 1000 g/h, evaluated after 13 days, five point scale
Method: as §1

[6] = test system: Echinochloa crus-galli (ECHCG); assay: Post-emergence glasshouse herbicide test; details: post-emergence (sprayed after 8 days cultivation), 1000 g/h, evaluated after 13 days, five point scale
Method: as §1

Solanum nigrum (SOLNI) [7] = assay: Pre-emergence glasshouse herbicide test; details: pre-emergence (sprayed after one day cultivation), 1000 g/h, evaluated after 13 days, five point scale
Method: as §1

[8] = test system: Ipomoea hederacea (IPOHE); assay: Pre-emergence glasshouse herbicide test; details: pre-emergence (sprayed after one day cultivation), 1000 g/h, evaluated after 13 days, five point scale
Method: as §1

[9] = test system: Amaranthus retoflexus (AMARE); assay: Pre-emergence glasshouse herbicide test; details: pre-emergence (sprayed after one day cultivation), 1000 g/h, evaluated after 13 days, five point scale
Method: as §1

Setaria faberi (SETFA) [10] = assay: Pre-emergence glasshouse herbicide test; details: pre-emergence (sprayed after one day cultivation), 1000 g/h, evaluated after 13 days, five point scale
Method: as §1

Lolium perenne (LOLPE) [11] = assay: Pre-emergence glasshouse herbicide test; details: pre-emergence (sprayed after one day cultivation), 1000 g/h, evaluated after 13 days, five point scale
Method: as §1

[12] = test system: Echinochloa crus-galli (ECHCG); assay: Pre-emergence glasshouse herbicide test; details: pre-emergence (sprayed after one day cultivation), 1000 g/h, evaluated after 13 days, five point scale
Method: as §1

Row | SMILES | percentage damage caused to the plant, SOLNI, POST Application (Solanum nigrum (SOLNI) [1]) | percentage damage caused to the plant, IPOHE, POST Application [2] | percentage damage caused to the plant, AMARE, POST Application [3] | percentage damage caused to the plant, SETFA, POST Application (Setaria faberi (SETFA) [4]) | percentage damage caused to the plant, LOLPE, POST Application (Lolium perenne (LOLPE) [5]) | percentage damage caused to the plant, ECHCG, POST Application [6] | percentage damage caused to the plant, SOLNI, PRE Application (Solanum nigrum (SOLNI) [7]) | percentage damage caused to the plant, IPOHE, PRE Application [8] | percentage damage caused to the plant, AMARE, PRE Application [9] | percentage damage caused to the plant, SETFA, PRE Application (Setaria faberi (SETFA) [10]) | percentage damage caused to the plant, LOLPE, PRE Application (Lolium perenne (LOLPE) [11]) | percentage damage caused to the plant, ECHCG, PRE Application [12]
1 | CCOc1c(C(=O)Nc2nnnn2C)nn(C)c(=O)c1-c1ccccc1 [Compound 1.031] | 5 (5=80-100%) | 5 (5=80-100%) | 5 (5=80-100%) | 5 (5=80-100%) | 4 (4=60-79%) | 5 (5=80-100%) | 5 (5=80-100%) | 5 (5=80-100%) | 5 (5=80-100%) | 5 (5=80-100%) | 3 (3=40-59%) | 5 (5=80-100%)
2 | CCOc1c(C(=O)Nc2nnnn2C)nn(C)c(=O)c1-c1ccc(Cl)c(Cl)c1 [Compound 1.032] | 5 (5=80-100%) | 4 (4=60-79%) | 5 (5=80-100%) | 5 (5=80-100%) | 4 (4=60-79%) | 5 (5=80-100%) | 5 (5=80-100%) | 4 (4=60-79%) | 5 (5=80-100%) | 5 (5=80-100%) | 4 (4=60-79%) | 5 (5=80-100%)
3 | COc1cccc(-c2c(Cl)c(C(=O)Nc3nnnn3C)nn(C)c2=O)c1 [Compound 1.036] | 5 (5=80-100%) | 4 (4=60-79%) | 5 (5=80-100%) | 5 (5=80-100%) | 5 (5=80-100%) | 5 (5=80-100%) | 5 (5=80-100%) | 2 (2=20-39%) | 5 (5=80-100%) | 5 (5=80-100%) | 5 (5=80-100%) | 5 (5=80-100%)
4 | Cn1nnnc1NC(=O)c1nn(C)c(=O)c(-c2ccccc2C(F)(F)F)c1Cl [Compound 1.037] | 5 (5=80-100%) | 5 (5=80-100%) | 5 (5=80-100%) | 5 (5=80-100%) | 5 (5=80-100%) | 5 (5=80-100%) | 5 (5=80-100%) | 5 (5=80-100%) | 5 (5=80-100%) | 5 (5=80-100%) | 5 (5=80-100%) | 5 (5=80-100%)
